In BindingDB's records for doi:10.1016/j.ejmech.2019.05.051 (Zhejiang Academy of Medical Sciences, 2019):

Assay: Inhibition of rat brain cortex AChE using acetylthiocholine iodide as substrate incubated for 15 mins by spectrophotometry

SMILES	IC50
CC(c1cc(OC(=O)N(C)C)c2ncccc2c1)N(C)C (stereo not given)	16.3 µM
CCN(C)C(=O)Oc1cccc([C@H](C)N(C)C)c1 [2,3-dihydroxybutanedioic acid; 3-[(1S)-1-(dimethylamino)ethyl]phenyl N-ethyl-N-methylcarbamate]	9 µM
CCN(C)C(=O)Oc1cc(C(C)N(C)C)cc2cccnc12 (stereo not given)	1.2 µM
CCN(C)C(=O)Oc1cc(C(C)N2CCCCC2)cc2cccnc12 (stereo not given)	29 µM
CCN(C)C(=O)Oc1cc(C(C)N(CC)CC)cc2cccnc12 (stereo not given)	41.2 µM
CC(c1cc(OC(=O)N2CCOCC2)c2ncccc2c1)N(C)C (stereo not given)	8.8 µM
CCN(C)C(=O)Oc1cc(C(C)N2CCCC2)cc2cccnc12 (stereo not given)	18.1 µM
CCN(CC)C(=O)Oc1cc(C(C)N(C)C)cc2cccnc12 (stereo not given)	13.6 µM
CC(c1cc(OC(=O)N2CCOCC2)c2ncccc2c1)N1CCOCC1 (stereo not given)	8.3 µM
CCN(C)C(=O)Oc1cc(C(C)N(C)CC)cc2cccnc12 (stereo not given)	40.7 µM
CC(c1cc(OC(=O)N(C)C)c2ncccc2c1)N1CCOCC1 (stereo not given)	69.9 µM
CC(c1cc(OC(=O)N2CCCCC2)c2ncccc2c1)N(C)C (stereo not given)	20.6 µM
CCN(C)C(=O)Oc1cc(C(C)N2CCN(C)CC2)cc2cccnc12 (stereo not given)	54.7 µM
CC(c1cc(OC(=O)N2CCCC2)c2ncccc2c1)N1CCOCC1 (stereo not given)	48.6 µM
CC(c1cc(OC(=O)N2CCCC2)c2ncccc2c1)N(C)C (stereo not given)	28.6 µM
